From US7820698B2, “Phosphodiesterase-4 inhibitors belonging to the tertiary amine class” (Chiesi Farmaceutici S.p.A., priority 2008, dated 2010) come the findings set out here.

Test [1] has as its system LPS-induced TNF-α release in peripheral blood mononuclear cells (PBMCs). Description: In vitro determination of PDE4 inhibitory activity in the peripheral blood mononuclear cells (PBMCs) assay. Type of test: cell-based. The settings on record: PBMC; human PBMCs, LPS (3 ng/ml), 18 hours, TNF-α by ELISA. As to the method:
The assay, which is based on the known inhibitory activity exerted by PDE4 inhibitors on the lipopolysaccharides (LPS)-induced tumour necrosis factor-alpha (TNF-α release in peripheral blood mononuclear cells (PBMCs), was performed according to the method described by A. Hatzelmann, et al., J. Pharmacol. Exp. Ther., 2001; 297:267-279 and by R. Draheim, et al., J. Pharmacol. Exp. Ther., 2004; 308:555-563.
Cryopreserved human PBMCs, (100 μl/well) were incubated in 96-well plates (10^5 cells/well), for 30 minutes, in the presence or absence (50 microl) of the test compounds whose concentrations ranged from 10^−12 M to 10^−6 M. Subsequently, LPS (3 ng/ml) was added.
After 18 hours incubation at 37° C. in a humidified incubator under an atmosphere of 95% air and 5% CO2, culture medium was collected and TNF-α measured by ELISA. The results are expressed as mean±95% confidence limits of the molar concentration of the test compound producing 50% inhibition of LPS-induced TNF-α release (IC50).
The effects of the tested compounds were calculated as percent inhibition of TNF-α release, assuming LPS-induced TNF-α production in the absence of inhibitor compound as 100% and basal TNF-α production of PBMCs in the absence of LPS as 0%.
(ELISA stands for enzyme-linked immunosorbent assay.)

In a further test the test system is PDE4 enzyme. Description: In vitro determination of PDE4 inhibitory activity in the cell free assay. Type of test: biochemical, human. The following applies: U937 cell supernatant, 1.6 μM cAMP, 30° C. for 30 minutes, cAMP disappearance. As to the method: The U937 human monocytic cell line was used as source of PDE4 enzyme. Cells were cultured, harvested and supernatant fraction prepared essentially as described in T. J. Torphy, et al., J. Pharmacol. Exp. Ther., 1992; 263:1195-1205.
PDE4 activity was determined in cells supernatants by assaying cAMP disappearance from the incubation mixtures. 50 μl of cell supernatant were incubated at 30° C. for 30 minutes in a final volume of 200 μl in the presence of 1.6 μM cAMP with or without the test compound (50 μl).
The concentration of the test compounds ranged between 10^−12 M and 10^−6 M.
Reactions were stopped by heat inactivation (2.5 minutes at 100° C.), and residual cAMP was measured using an electrochemiluminescence (ECL)-based immunoassay.
The results are expressed as mean±95% confidence limits of the molar concentration of the test compound producing 50% inhibition of cAMP disappearance (IC50).
Percentage of inhibition of PDE4 activity was calculated, assuming cAMP disappearance in the absence of inhibitors as 100% and cAMP disappearance in heat inactivated samples as 0%.

Regarding `COc1ccc(N(Cc2ccc(F)cc2)Cc2c(Cl)cncc2Cl)cc1OC` [Compound C1, (3,5-Dichloro-pyridin-4-ylmethyl)-(3,4-dimethoxy-phenyl)-(4-fluoro-benzyl)-amine], the concentration for half-maximal inhibition (IC50) in test [1] was determined as 661 nM; in the test with PDE4 enzyme, 81 nM.
In the case of `COc1cccc(CN(Cc2c(Cl)cncc2Cl)c2ccc(OC)c(OC)c2)c1` [Compound C3, (3,5-Dichloro-pyridin-4-ylmethyl)-(3,4-dimethoxy-phenyl)-(3-methoxy-benzyl)-amine], the IC50 in test [1] is 184 nM; with PDE4 enzyme it was 140 nM.
For `COc1ccc(N(Cc2ccc(S(C)(=O)=O)cc2)Cc2c(Cl)cncc2Cl)cc1OC` [Compound C4, (3,5-Dichloro-pyridin-4-ylmethyl)-(3,4-dimethoxy-phenyl)-(4-methanesulfonyl-benzyl)-amine], the IC50 turned out to be 198 nM in test [1] and 60 nM in the test on PDE4 enzyme.
In the case of `COc1ccc(N(Cc2ccco2)Cc2c(Cl)cncc2Cl)cc1OC` [Compound C9, (3,5-Dichloro-pyridin-4-ylmethyl)-(3,4-dimethoxy-phenyl)-furan-2-ylmethyl-amine], in test [1], half-maximal inhibition (IC50) was put at 47.8 nM.
As for `COc1ccc(N(Cc2ccc(S(N)(=O)=O)cc2)Cc2c(Cl)cncc2Cl)cc1OC` [Compound C10, 4-{[(3,5-Dichloro-pyridin-4-ylmethyl)-(3,4-dimethoxy-phenyl)-amino]-methyl}-benzenesulfonamide], the IC50 (in test [1]; in the test on PDE4 enzyme) was 38 nM in each case.
Take `COc1ccc(CN(Cc2c(Cl)cncc2Cl)c2ccc(OC)c(OC)c2)cc1` [Compound C13, (3,5-Dichloro-pyridin-4-ylmethyl)-(3,4-dimethoxy-phenyl)-(4-methoxy-benzyl)-amine]: the IC50 in test [1] came out at 9.85 nM; with PDE4 enzyme, 97.1 nM.
The like results for `CCOc1cc(N(Cc2ccc(OC)cc2)Cc2c(Cl)cncc2Cl)ccc1OC` [Compound C14, (3,5-Dichloro-pyridin-4-ylmethyl)-(3-ethoxy-4-methoxy-phenyl)-(4-methoxy-benzyl)-amine] were, in that order, 117 nM and 27 nM.

As a reminder, the IC50 is the concentration that gives 50% inhibition. Low readings indicate higher potency, high ones lower potency.
